Entries after “also recorded” stand apart in the source; their conditions may differ.
Key:
[1] = molecular target: T1, FP receptor (Mus musculus, UniProt P43117); test: Neurological deficit score after transient ischemia (90-min MCAO), post-treatment with FP agonist; format: in vivo; settings: WT mice
T1 construct: WT mice were post-treated orally with 10 μg/kg (n=10) or 100 μg/kg (n=8) latanoprost 30 min after reperfusion; endogenous in cells; host or cells: wild-type mice, whole animal (in vivo); FP-/- mice used as receptor-null control
Experimental: (§1) Transient ischemia protocol. WT (n=11) and FP^−/− (n=12) mice were subjected to MCAO for 90 min followed by 96 h of reperfusion (Ahmad et al., 2006a). Mice were placed under halothane anesthesia (3.0% for induction, 1.0% for maintenance) and ventilated with oxygen-enriched air via a nose cone. Body temperatures were maintained at 37.0±0.5° C. by a heating pad. The mice were subjected to the intraluminal filament technique to produce the MCAO model of transient focal cerebral ischemia as we have described previously (Ahmad et al., 2006a). Relative cerebral blood flow (CBF) was measured by laser-Doppler flowmetry (Moor instruments, Devon, England) with a flexible probe affixed to the skull over the parietal cortex supplied by the MCA (2 mm posterior and 6 mm lateral to bregma). […] During occlusion, mice were kept in a humidity-controlled, 32° C. chamber to help maintain a body core temperature of 37° C. After 90 min of occlusion, mice were briefly re-anesthetized, the midline was reopened, and the filament was removed to establish reperfusion. After the incision was sutured, mice were again placed in the humidity- and temperature-controlled chamber for another 6 h and finally returned to their respective cages for survival up to 96 h.
(§2) Assessment of neurological deficit score. Neurological function was measured in each mouse at 96 h after reperfusion according to the following graded scoring system, as described previously (Li et al., 2004): 0=no deficit; 1=forelimb weakness and torso turning to the ipsilateral side when held by tail; 2=circling to affected side; 3=unable to bear weight on affected side; and 4=no spontaneous locomotor activity or barrel rolling.
(§3) Post-treatment of mice with the FP agonist latanoprost. […] At 96 h after MCAO, neurological deficit scores and brain injury were measured. […]

[2] = test system: FP receptor; test: as above; format: in vivo, mouse; settings: FP−/− mice, 100 μg/kg orally 30 min after reperfusion, scored at 96 h, mean±S.E.M., p<0.05 vs latanoprost-treated WT
Experimental: as §1, §2, §3

[3] = molecular target: T1, FP receptor; test: Brain infarction (TTC staining) after transient ischemia (90-min MCAO), post-treatment with FP agonist; format: in vivo; settings: WT mice, TTC at 96 h
Experimental: as §1, with “After 90 min of occlusion, mice were briefly re-anesthetized, the midline was reopened, and the filament was removed to establish reperfusion. After the incision was sutured, mice were again placed in the humidity- and temperature-controlled chamber for another 6 h and finally returned to their respective cages for survival up to 96 h.” left out
as §3
Assessment of brain infarction. […] Infarct volume was assessed by 2,3,5-triphenyltetrazolium chloride (TTC) staining by an observer blinded to the treatments, as described previously (Ahmad et al., 2006a). […] The corrected volume of the infarcted hemisphere was calculated as: volume of contralateral hemisphere−(volume of ipsilateral hemisphere−volume of infarct).

T1 sequence (P43117 whole entry, the tested form may be a part): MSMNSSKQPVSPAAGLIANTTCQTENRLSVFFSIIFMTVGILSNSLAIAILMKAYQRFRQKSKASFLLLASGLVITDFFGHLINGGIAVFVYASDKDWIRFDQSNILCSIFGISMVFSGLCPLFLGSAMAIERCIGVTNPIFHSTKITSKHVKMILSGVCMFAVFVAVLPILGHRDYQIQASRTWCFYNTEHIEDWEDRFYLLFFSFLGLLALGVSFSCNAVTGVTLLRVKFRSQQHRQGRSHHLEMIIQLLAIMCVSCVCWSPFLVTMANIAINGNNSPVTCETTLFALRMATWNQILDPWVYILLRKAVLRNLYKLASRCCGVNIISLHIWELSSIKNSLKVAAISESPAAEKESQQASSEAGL

CC(C)OC(=O)CCC/C=C\C[C@@H]1[C@@H](CC[C@@H](O)CCc2ccccc2)[C@H](O)C[C@@H]1O [latanoprost, 13,14-dihydro-17-phenyl-18,19,20-trinor-PGF2α isopropyl ester] was tested, and the neurological deficit score ([1]; 10 μg/kg orally 30 min after reperfusion, scored at 96 h (scale 0-4), mean±S.E.M., vehicle 1.8±0.2, not significant) was 2.2±0.2, the neurological deficit score ([1]; 100 μg/kg orally 30 min after reperfusion, scored at 96 h, p<0.05 vs vehicle) was “significantly increased the neurological deficit” and the neurological deficit score [2] was 1.4±0.2. The “brain damage (corrected infarct volume)” value ([3]; 10 μg/kg orally 30 min after reperfusion, vs vehicle) was “trend toward increased brain damage” and the “brain damage (corrected infarct volume)” value ([3]; 100 μg/kg orally 30 min after reperfusion, p<0.05 vs vehicle) was “significantly larger infarct volumes; also recorded: became significant”.
